Measured values: patent EP2888233B1, “SUBSTITUTED 6-AMINO-NICOTINAMIDES BEARING AN OH-CONTAINING GROUP AS KCNQ2/3 MODULATORS” (Grünenthal GmbH, priority 2012, dated 2013)

Key:
KCNQ2/3 channels = biological target: T1, KCNQ2/3 channels (Homo sapiens, UniProt O43525+O43526); assay: Fluorescence assay using a voltage sensitive dye (fluorimetry); type: cell-based; settings: for Fluorimetry % efficacy (retigabine = 100%) / EC50: CHO-K1 cells expressing KCNQ2/3 channels; for Fluorimetry % efficacy (retigabine = 100%) / Emax: plateau effect relative to saturated Retigabine (50 µM) = 100%; for EC50: voltage-sensitive dye, KCl depolarization, read-out: Fluorimetry EC50 / IC50; for Emax: CHO-K1, CHO-K1 cells expressing KCNQ2/3 channels, read-out: Fluorimetry % efficacy (retigabine = 100%)
T1 construct: expressed in transfected cells
From the text: Method I. Fluorescence assay using a voltage sensitive dye (fluorimetry)
The modulation of the KCNQ opening state (and consequently the voltage potential of a cell) by test compounds such as compounds according to the present invention results in an increased or reduced amount of a voltage-sensitive dye in the cytoplasm of the cells tested. These voltage-sensitive dyes are fluorescent dyes and, therefore, are forming the link between cell potential influenced by KCNQ modulation and fluorescence intensity. A KCNQ agonist leads to an opening of the channel, potassium and dye efflux, a following hyperpolarization and a reduction of the inner fluorescence intensity in a kinetic protocol. If applying an ion jump by KCl depolarization, KCNQ agonists increase the ΔF/F value. An antagonist performs vice versa, respectively.
The 'fluorimetry EC50' is the half maximum effective concentration (EC50), where the concentration of a drug/compound induces a response halfway between the baseline and maximum plateau effect. In other words, said value represents the concentration of a compound, where 50% of its maximal effect in the fluorimetric assay is observed if the substance concentration is graphed against the corresponding ΔF/F values (for which the calculation method is described below). Therefore, 'fluorimetry EC50' is a measure for the compound potency. The compound efficacy is mirrored by 'fluorimetry % efficacy' ('%Efficacy') and refers to the maximum response achievable by the test compound, i.e. the plateau effect. This drug's plateau effect is related to the plateau effect, which can be achieved by applying a saturated concentration of a reference compound, e.g. Retigabine (50 µM), in independent wells of the same experimental plate or series. A compound showing 100% efficacy is as efficacious as the reference compound (Retigabine) with a saturated concentration.
[…] CHO-K1 cells expressing KCNQ2/3 channels are cultivated adherently at 37°C, 5% CO2 and 95% humidity in cell culture bottles (e.g. 80 cm^2 TC flasks, Nunc) with DMEM-high glucose (Sigma Aldrich, D7777) including 10% FCS (PAN Biotech, e.g. 3302-P270521) or alternatively MEM Alpha Medium (1x, liquid, Invitrogen, #22571), 10% fetal calf serum (FCS) (Invitrogen, #10270-106, heat-inactivated) and the necessary selection antibiotics.
Before being sown out for the measurements, the cells are washed with 1 x DPBS buffer Ca^2+/Mg^2+-free (e.g. Invitrogen, #14190-094) and detached from the bottom of the culture vessel by using Accutase (PAA Laboratories, #L11-007) (incubation with Accutase for 15 min at 37°C). The cell number is determined using a CASY™ cell counter (TCC, Schärfe System). Depending on the optimal density for each individual cell line, 20,000-30,000 cells/well/100 µl are seeded onto 96-well Corning™ CellBIND™ assay plates (Flat Clear Bottom Black Polystyrene Microplates, #3340). Freshly seeded cells are then left to settle for one hour at room temperature, followed by incubation for 24 hours at 37°C, 5% CO2 and 95% humidity.
The voltage-sensitive fluorescent dye from the Membrane Potential Assay Kit (Red™ Bulk format part R8123 for FLIPR, MDS Analytical Technologies™) is prepared by dissolving the contents of one vessel Membrane Potential Assay Kit Red Component A in 200 ml of extracellular buffer (ES buffer, 120 mM NaCl, 1 mM KCI, 10 mM HEPES, 2 mM CaCl2, 2 mM MgCl2, 10 mM glucose; pH 7.4). After removal of the nutrient medium, the cells are washed once with 200 µl of ES buffer, then loaded for 45 min at room temperature in 100 µl of dye solution in the dark.
Fluorescence measurements are carried out in a BMG Labtech FLUOstar™, BMG Labtech NOVOstar™ or BMG Labtech POLARstar™ instrument (525 nm excitation, 560 nm emission, Bottom Read mode). […]

[1] = tested on: withdrawal reflex of the rat tail (tail flick); assay: Low-intensity tail flick test (rat); type: in vivo, Male Sprague-Dawley rats; settings: MPE [%] at dose 10 mg/kg, dose printed in brackets in the cell
Experimental: Method II. Low-intensity tail flick test (rat)
In the low-intensity tail flick test, the determination of the antinociceptive effect of the compounds according to the invention towards an acute noxious thermal stimulus is carried out by measuring the withdrawal reflex of the rat tail (tail flick) in response to a radiant heat beam (analgesia meter; model 2011 of the company Rhema Labortechnik, Hofheim, Germany) according to the method described by D'Amour and Smith (J. Pharm. Exp. Ther. 72, 74 79 (1941). To this end, the rats were placed in a plexiglas restrainer, and a low-intensity radiant heat beam (48°C) was focused onto the dorsal surface of the tail root. […] Before administration of a compound according to the invention, the animals were pre-tested twice in the course of five minutes and the mean of these measurements was calculated as the pre-test mean. The antinociceptive effect was determined at 20, 40 and 60 min after peroral compound administration. The antinociceptive effect was calculated based on the increase in the tail withdrawal latency according to the following formula and is expressed as percentage of the maximum possible effect (MPE [%]): MPE = [(T1−T0)/(T2−T0)]*100 [formula] […]

| Compound | Fluorimetry % efficacy (retigabine = 100%) (KCNQ2/3 channels) [%] | EC50 (KCNQ2/3 channels) [nM] | Emax (KCNQ2/3 channels) [%] | Low intensity tail flick, rat, peroral, ED50 or MPE (dose) [1] |
| --- | --- | --- | --- | --- |
| Cc1cc(N2CCOCC2)nc(C(C)C)c1C(=O)NCCC(O)C(F)(F)F (single isomer, unassigned) [Example 6b, 2-Isopropyl-4-methyl-6-morpholin-4-yl-N-(4,4,4-trifluoro-3-hydroxy-butyl)-pyridine-3-carboxylic acid amide] | 149 | 3920 | – | – |
| Cc1cc(N2CCOCC2)nc(C2CC2)c1C(=O)NC[C@@H]1CCCC[C@H]1O [Example 2, 2-Cyclopropyl-N-[[(1S,2R)-2-hydroxy-cyclohexyl]-methyl]-4-methyl-6-morpholin-4-yl-pyridine-3-carboxylic acid amide] | – | 483 | 245 | 67 (10) % |
| Cc1cc(N2CCOCC2)nc(C(C)C)c1C(=O)NC[C@@H]1CCCC[C@H]1O [Example 7, N-[[(1S,2R)-2-Hydroxy-cyclohexyl]-methyl]-2-isopropyl-4-methyl-6-morpholin-4-yl-pyridine-3-carboxylic acid amide] | – | 185 | 243 | – |
| Cc1cc(N2CCOCC2)nc(C(C)C)c1C(=O)NCCC(O)C(F)(F)F (single isomer, unassigned) [Example 6a, 2-Isopropyl-4-methyl-6-morpholin-4-yl-N-(4,4,4-trifluoro-3-hydroxy-butyl)-pyridine-3-carboxylic acid amide] | 206 | 1090 | – | – |
| Cc1cc(N2CCOCC2)nc(C(C)C)c1C(=O)NCCC(O)C(F)(F)F (stereo not shown) [Example 6, 2-Isopropyl-4-methyl-6-morpholin-4-yl-N-(4,4,4-trifluoro-3-hydroxy-butyl)-pyridine-3-carboxylic acid amide] | – | 1990 | 150 | – |
| Cc1cc(N2CCOCC2)nc(C2CC2)c1C(=O)NC[C@H]1CCCC[C@@H]1O [Example 3, 2-Cyclopropyl-N-[[(1R,2S)-2-hydroxy-cyclohexyl]-methyl]-4-methyl-6-morpholin-4-yl-pyridine-3-carboxylic acid amide] | – | 8550 | 99 | – |

Now from value to compound, other results behind:

| Fluorimetry % efficacy (retigabine = 100%) (KCNQ2/3 channels) [%] | EC50 (KCNQ2/3 channels) [nM] | Emax (KCNQ2/3 channels) [%] | Compound | Low intensity tail flick, rat, peroral, ED50 or MPE (dose) [1] |
| --- | --- | --- | --- | --- |
| – | 431 | 239 | Cc1cc(N2CCOCC2)nc(C(C)C)c1C(=O)NCCC(O)C(C)(C)C (single isomer, unassigned) [Example 5a, N-(3-hydroxy-4,4-dimethyl-pentyl)-2-isopropyl-4-methyl-6-morpholin-4-yl-pyridine-3-carboxylic acid amide] | – |
| – | 529 | 237 | Cc1cc(N2CCOCC2)nc(C2CC2)c1C(=O)NCCC(O)C(C)(C)C (stereo not shown) [Example 1, 2-Cyclopropyl-N-(3-hydroxy-4,4-dimethyl-pentyl)-4-methyl-6-morpholin-4-yl-pyridine-3-carboxylic acid amide] | – |
| 239 | 94 | – | Cc1cc(N2CCOCC2)nc(C(C)C)c1C(=O)NCCC(O)C(C)(C)C (single isomer, unassigned) [Example 5b, N-(3-hydroxy-4,4-dimethyl-pentyl)-2-isopropyl-4-methyl-6-morpholin-4-yl-pyridine-3-carboxylic acid amide] | – |
| – | 961 | 242 | Cc1cc(N2CCOCC2)nc(C2CC2)c1C(=O)NCCC(O)C(C)(C)C (single isomer, unassigned) [Example 1a, 2-cyclopropyl-N-(3-hydroxy-4,4-dimethyl-pentyl)-4-methyl-6-morpholin-4-yl-pyridine-3-carboxylic acid amide] | – |
| – | 252 | 231 | CCOc1nc(N2CCOCC2)cc(C)c1C(=O)NCCC(O)C(C)(C)C (stereo not shown) [Example 8, 2-Ethoxy-N-(3-hydroxy-4,4-dimethyl-pentyl)-4-methyl-6-morpholin-4-yl-pyridine-3-carboxylic acid amide] | – |
| 224 | 318 | – | Cc1cc(N2CCOCC2)nc(C2CC2)c1C(=O)NCCC(O)C(C)(C)C (single isomer, unassigned) [Example 1b, 2-cyclopropyl-N-(3-hydroxy-4,4-dimethyl-pentyl)-4-methyl-6-morpholin-4-yl-pyridine-3-carboxylic acid amide] | 100 (10) % |
| – | 156 | 230 | Cc1cc(N2CCOCC2)nc(C(C)C)c1C(=O)NCCC(O)C(C)(C)C (stereo not shown) [Example 5, N-(3-Hydroxy-4,4-dimethyl-pentyl)-2-isopropyl-4-methyl-6-morpholin-4-yl-pyridine-3-carboxylic acid amide] | – |
